Source: ChEMBL document CHEMBL3885881, “DrugMatrix”

Organism: Rattus norvegicus
Experiment: DrugMatrix - Regimen: Daily Repeat
Type: toxicity, organism-based, Sprague-Dawley
Design: regimen Daily Repeat, gender Male, age 6-8 weeks
Settings: in vivo, po, route oral GAVAGE, vehicle .5 % CMC; for ABSOLUTE BASOPHIL / ABSOLUTE EOSINOPHIL / ABSOLUTE LYMPHOCYTE / ABSOLUTE MONOCYTE / ABSOLUTE SEGMENTED NEUTROPHIL / BASOPHIL / EOSINOPHIL / ERYTHROCYTE COUNT / HEMATOCRIT / HEMOGLOBIN / LEUKOCYTE COUNT / LYMPHOCYTE / MEAN CORPUSCULAR HEMOGLOBIN / MEAN CORPUSCULAR HEMOGLOBIN CONCENTRATION / MEAN CORPUSCULAR VOLUME / MONOCYTE / NEUTROPHIL / NUCLEATED RED BLOOD CELLS / PLATELET COUNT: tissue Blood; for ALANINE AMINOTRANSFERASE / ALBUMIN / ALKALINE PHOSPHATASE / ASPARTATE AMINOTRANSFERASE / BLOOD UREA NITROGEN / CARBON DIOXIDE / CHLORIDE / CHOLESTEROL / CREATINE PHOSPHOKINASE / CREATININE / GLUCOSE / LACTATE DEHYDROGENASE / LIPASE / PHOSPHORUS / POTASSIUM / SODIUM / TOTAL BILIRUBIN / TOTAL PROTEIN / URIC ACID: tissue Plasma
[1] = 20 mg/kg, 72 h, dose level Low, time 3 day
[2] = 20 mg/kg, 120 h, dose level Low, time 5 day
[3] = 600 mg/kg, 72 h, dose level High, time 3 day
[4] = 600 mg/kg, 120 h, dose level High, time 5 day

## CC(C)CN(C[C@@H](O)[C@H](Cc1ccccc1)NC(=O)O[C@H]1CCOC1)S(=O)(=O)c1ccc(N)cc1
[1]
  ABSOLUTE BASOPHIL: 0 CELLS/uL
  ABSOLUTE EOSINOPHIL: 148.67 CELLS/uL
  ABSOLUTE LYMPHOCYTE: 12756.67 CELLS/uL
  ABSOLUTE MONOCYTE: 107.67 CELLS/uL
  ABSOLUTE SEGMENTED NEUTROPHIL: 887 CELLS/uL
  BASOPHIL: 0%
  EOSINOPHIL: 1%
  ERYTHROCYTE COUNT: 5.52 x10E6/uL
  HEMATOCRIT: 35.2%
  HEMOGLOBIN: 13.3 G/DL
  LEUKOCYTE COUNT: 13.9 x10E3/uL
  LYMPHOCYTE: 91.67%
  MEAN CORPUSCULAR HEMOGLOBIN: 24.17 pg
  MEAN CORPUSCULAR HEMOGLOBIN CONCENTRATION: 37.8 G/DL
  MEAN CORPUSCULAR VOLUME: 63.87 fL
  MONOCYTE: 0.67%
  NEUTROPHIL: 6.67%
  NUCLEATED RED BLOOD CELLS: 0 /100WBC
  PLATELET COUNT: 1248.33 x10E3/uL
  ALANINE AMINOTRANSFERASE: 50 u/L
  ALBUMIN: 4.23 G/DL
  ALKALINE PHOSPHATASE: 362 u/L
  ASPARTATE AMINOTRANSFERASE: 76.33 u/L
  BLOOD UREA NITROGEN: 16.33 mg/dL
  CARBON DIOXIDE: 26 mmol/L
  CHLORIDE: 102 MEQ/L
  CHOLESTEROL: 67 mg/dL
  CREATINE PHOSPHOKINASE: 172.67 u/L
  CREATININE: 0.21 mg/dL
  GLUCOSE: 169.67 mg/dL
  LACTATE DEHYDROGENASE: 136.67 u/L
  LIPASE: 8 u/L
  PHOSPHORUS: 12.83 mg/dL
  POTASSIUM: 6.23 MEQ/L
  SODIUM: 144.7 MEQ/L
  TOTAL BILIRUBIN: 0.17 mg/dL
  TOTAL PROTEIN: 6.07 G/DL
  URIC ACID: 1.83 mg/dL
[2]
  ABSOLUTE BASOPHIL: 0 CELLS/uL
  ABSOLUTE EOSINOPHIL: 74 CELLS/uL
  ABSOLUTE LYMPHOCYTE: 7729 CELLS/uL
  ABSOLUTE MONOCYTE: 39.33 CELLS/uL
  ABSOLUTE SEGMENTED NEUTROPHIL: 524.33 CELLS/uL
  BASOPHIL: 0%
  EOSINOPHIL: 1%
  ERYTHROCYTE COUNT: 5.73 x10E6/uL
  HEMATOCRIT: 35.57%
  HEMOGLOBIN: 13.37 G/DL
  LEUKOCYTE COUNT: 8.37 x10E3/uL
  LYMPHOCYTE: 92%
  MEAN CORPUSCULAR HEMOGLOBIN: 23.33 pg
  MEAN CORPUSCULAR HEMOGLOBIN CONCENTRATION: 37.63 G/DL
  MEAN CORPUSCULAR VOLUME: 62.13 fL
  MONOCYTE: 0.33%
  NEUTROPHIL: 6.67%
  NUCLEATED RED BLOOD CELLS: 0 /100WBC
  PLATELET COUNT: 1179.33 x10E3/uL
  ALANINE AMINOTRANSFERASE: 54.33 u/L
  ALBUMIN: 4.43 G/DL
  ALKALINE PHOSPHATASE: 421.33 u/L
  ASPARTATE AMINOTRANSFERASE: 83 u/L
  BLOOD UREA NITROGEN: 14.33 mg/dL
  CARBON DIOXIDE: 28.33 mmol/L
  CHLORIDE: 101 MEQ/L
  CHOLESTEROL: 68 mg/dL
  CREATINE PHOSPHOKINASE: 229.67 u/L
  CREATININE: 0.2 mg/dL
  GLUCOSE: 141 mg/dL
  LACTATE DEHYDROGENASE: 108 u/L
  LIPASE: 8.67 u/L
  PHOSPHORUS: 12.47 mg/dL
  POTASSIUM: 6.58 MEQ/L
  SODIUM: 146.5 MEQ/L
  TOTAL BILIRUBIN: 0.2 mg/dL
  TOTAL PROTEIN: 6.3 G/DL
  URIC ACID: 1.3 mg/dL
[3]
  ABSOLUTE BASOPHIL: 0 CELLS/uL
  ABSOLUTE EOSINOPHIL: 50.33 CELLS/uL
  ABSOLUTE LYMPHOCYTE: 11050.67 CELLS/uL
  ABSOLUTE MONOCYTE: 72.33 CELLS/uL
  ABSOLUTE SEGMENTED NEUTROPHIL: 1093.33 CELLS/uL
  BASOPHIL: 0%
  EOSINOPHIL: 0.33%
  ERYTHROCYTE COUNT: 5.53 x10E6/uL
  HEMATOCRIT: 35.5%
  HEMOGLOBIN: 13.6 G/DL
  LEUKOCYTE COUNT: 12.27 x10E3/uL
  LYMPHOCYTE: 89.67%
  MEAN CORPUSCULAR HEMOGLOBIN: 24.57 pg
  MEAN CORPUSCULAR HEMOGLOBIN CONCENTRATION: 38.27 G/DL
  MEAN CORPUSCULAR VOLUME: 64.1 fL
  MONOCYTE: 0.67%
  NEUTROPHIL: 9.33%
  NUCLEATED RED BLOOD CELLS: 0 /100WBC
  PLATELET COUNT: 1258 x10E3/uL
  ALANINE AMINOTRANSFERASE: 56.67 u/L
  ALBUMIN: 4.33 G/DL
  ALKALINE PHOSPHATASE: 381 u/L
  ASPARTATE AMINOTRANSFERASE: 116.67 u/L
  BLOOD UREA NITROGEN: 16 mg/dL
  CARBON DIOXIDE: 25 mmol/L
  CHLORIDE: 107.33 MEQ/L
  CHOLESTEROL: 69 mg/dL
  CREATINE PHOSPHOKINASE: 1567.67 u/L
  CREATININE: 0.18 mg/dL
  GLUCOSE: 194.33 mg/dL
  LACTATE DEHYDROGENASE: 164.67 u/L
  LIPASE: 8.67 u/L
  PHOSPHORUS: 14.17 mg/dL
  POTASSIUM: 6.64 MEQ/L
  SODIUM: 145.83 MEQ/L
  TOTAL BILIRUBIN: 0.23 mg/dL
  TOTAL PROTEIN: 5.97 G/DL
  URIC ACID: 2.07 mg/dL
[4]
  ABSOLUTE BASOPHIL: 0 CELLS/uL
  ABSOLUTE EOSINOPHIL: 292.33 CELLS/uL
  ABSOLUTE LYMPHOCYTE: 15254.33 CELLS/uL
  ABSOLUTE MONOCYTE: 69 CELLS/uL
  ABSOLUTE SEGMENTED NEUTROPHIL: 1517.67 CELLS/uL
  BASOPHIL: 0%
  EOSINOPHIL: 1.67%
  ERYTHROCYTE COUNT: 5.48 x10E6/uL
  HEMATOCRIT: 34.63%
  HEMOGLOBIN: 13.17 G/DL
  LEUKOCYTE COUNT: 17.13 x10E3/uL
  LYMPHOCYTE: 88.67%
  MEAN CORPUSCULAR HEMOGLOBIN: 24.03 pg
  MEAN CORPUSCULAR HEMOGLOBIN CONCENTRATION: 38 G/DL
  MEAN CORPUSCULAR VOLUME: 63.2 fL
  MONOCYTE: 0.33%
  NEUTROPHIL: 9.33%
  NUCLEATED RED BLOOD CELLS: 0 /100WBC
  PLATELET COUNT: 1347.67 x10E3/uL
  ALANINE AMINOTRANSFERASE: 41.67 u/L
  ALBUMIN: 4.2 G/DL
  ALKALINE PHOSPHATASE: 390 u/L
  ASPARTATE AMINOTRANSFERASE: 76.33 u/L
  BLOOD UREA NITROGEN: 15.67 mg/dL
  CARBON DIOXIDE: 27.33 mmol/L
  CHLORIDE: 102.33 MEQ/L
  CHOLESTEROL: 58.67 mg/dL
  CREATINE PHOSPHOKINASE: 202 u/L
  CREATININE: 0.21 mg/dL
  GLUCOSE: 161.33 mg/dL
  LACTATE DEHYDROGENASE: 95.67 u/L
  LIPASE: 8.33 u/L
  PHOSPHORUS: 12.93 mg/dL
  POTASSIUM: 6.23 MEQ/L
  SODIUM: 144.37 MEQ/L
  TOTAL BILIRUBIN: 0.17 mg/dL
  TOTAL PROTEIN: 6 G/DL
  URIC ACID: 1.77 mg/dL
